Results from patent publication US8716231B2, “Use of benzo-fused heterocycle sulfamide derivatives for the treatment of pain” (Janssen Pharmaceutica NV, priority 2005, dated 2014).
Entries after “also recorded” stand apart in the source; their conditions may differ.

Experiments:
[1] = system: Taxol®-induced mechanical allodynia; test: Taxol Induced Peripheral Neuropathy Model (pilot), Von Frey testing; type: in vivo, Sprague-Dawley rats; conditions: 100 mg/kg po daily for 12 days with Taxol 2 mg/kg i.p. days 1, 3, 5, 7; Day 12
Description: In addition, the compound's effects on spontaneous locomotor activity was measured.
The animals were housed in polycarbonate plastic cages, 2 animals per cage, at a temperature of 18-26° C., 30-70% humidity, 12-hour light/dark cycle, with food and water available ad libityum.
On days 1, 3, 5, and 7, the rats received an ip (intraperitoneal) injection of Taxol® (2 mg/kg).
Two behavioral tests were performed: measurement of tactile sensitivity and spontaneous locomotor activity. At baseline and on Days 5 and 12 post-Taxol® injection, the animals underwent Von Frey testing for mechanical allodynia (according to the procedure as described in Chaplan, S R, Bach, F W, Pogrel, J W, Chung, J M, Yaksh, T L. Quantitative assessment of tactile allodynia in the rat paw. J Neurosci Meth, 53:55-63, 1994). Tactile sensitivity (i.e. mechanical allodynia) was measured using calibrated filaments touched to the plantar surface of the affected limb to determine paw withdrawal threshold. Briefly, the rats were placed in a Plexiglas cage with a wire mesh bottom and allowed to acclimate for 10 minutes. Once the animals settled, the plantar surface of the right hind paw was touched with a 2.0 g von Frey filament. […] Data were analyzed using two-way ANOVA, one-way ANOVA and Dunnett's test, with statistical significance at p<0.05.

[2] = system: paclitaxel-evoked mechano-allodynia and mechano-hyperalgesia; test: Taxol Induced Peripheral Neuropathy Model (longer term study, Example 20); type: in vivo, Sprague-Dawley rats
Description: Paclitaxel (Taxol®, Bristol-Myers-Squibb; 6 mg/ml in a 50:50 mixture of Cremophor and ethanol) was diluted just before use with saline to a concentration of 2 mg/ml and injected IP in a volume of 1 ml/kg) on four alternate days (D0, D2, D4, and D6).
Adult male Sprague-Dawley rats (Harlan, Indianapolis, Ind.; Frederick, Md. breeding colony) were caged on sawdust bedding in groups of 3-4 with food and water available ad libitum and a 12:12 hr light-dark cycle.
Group 3 was treated with an equal volume of vehicle, daily, starting on D0 (the same day as the beginning of paclitaxel dosing).
The animals were habituated to the testing environment on three separate days and then three daily baseline sessions were given to measure the normal response rate to stimulation with von Frey hairs exerting 4 g or 15 g of pressure (4 gVFH and 15 gVFH). Normal rats rarely, if ever, withdraw from stimulation with 4 gVFH; thus, a post-paclitaxel increase in responding to this stimulus is indicative of mechano-allodynia. Normal rats withdraw from stimulation with 15 gVFH 10-20% of the time; thus an increased response frequency to this stimulus is indicative of mechano-hyperalgesia.
The animals were positioned beneath upturned plastic mouse cages atop an elevated platform with wire-mesh flooring. Each VFH was applied to the glabrous skin of the mid-heel and the presence or absence of a withdrawal response was noted. This was repeated 5 times on each hind paw and the animal's responses were summarized as a percent response score (e.g., 5 withdrawal responses to 15gVFH stimulation would yield a score of 50%). Behavior was assessed by an observer who was blind as to group assignment.
Behavioral tests for paclitaxel's effects began on day 13 (D13) and were repeated on D15, D17, D21, D24, D28, D31, D35 and D38. […] For these days the drug was given at 0900 h and behavioral tests began at 1300 h. Significant paclitaxel-evoked mechano-allodynia and mechano-hyperalgesia were expected to develop 10-14 days after the last injection of paclitaxel.

[3] = system: CFA induced thermal hypersensitivity (radiant heat paw withdrawal latency); test: Complete Freund's Adjuvant (CFA)-induced Model of Inflammatory Pain; type: in vivo, Sprague-Dawley rats; conditions: 560 mg/kg oral; 4 hr after oral administration
Description: Intraplantar injection of CFA in rats results in a long-lasting inflammatory reaction, characterized by edema and a pronounced hypersensitivity to both thermal and mechanical stimuli. This hypersensitivity peaks between 24-72 hours after injection and can last for several weeks. This assay predicts the analgesic, antiallodynic and/or antihyperalgesic effect of test compounds.
Test compound and controls were dissolved in the appropriate volume of 0.5% HPMC or 10% solutol in 0.5% hydoxypropyl methylcellulose (HPMC). Solutions were prepared to provide the final dose in a volume of 2.5 mL/kg or 5 mL/kg p.o. for rats. Male, Sprague-Dawley rats from Charles Rivers Laboratories (Portage, Me.), weighing between 250 and 350 grams at the time of study, were used for the CFA paw radiant heat studies.
Rats in the CFA study were moved to a testing room the day of the CFA injection, where they remained for the duration of the study. […]
On the day of study, rats were given a 100 μL (1 μg/μL) intraplantar injection of CFA (1:1 CFA:saline) into their left hindpaw. […] Percent Reversal of hyperalgesia was calculated for each animal as [(treatment response)−(post-CFA response)]/[(pre-CFA response)−(post-CFA response)]×100. Average % reversal of hyperalgesia was then calculated for each treatment group (n=5-6 rats/group). […]

[4] = system: formalin-induced hyperalgesia (paw licking); test: Formalin-Induced Hyperalgesia Model; type: in vivo, CF-1 mice; conditions: Mus musculus; i.p., 2 hours before formalin; 95% CI range 53.6-225 mg/kg; read-out: median effective dose (ED50) for a 50% or greater reduction in AUC, secondary phase (phase 2, inflammatory)
Description: Adult male CF-1 mice weighing 2-0 g were obtained from Charles River (Wilmington, Mass.). All animals were house on a 12:12 light:dark cycle and permitted free access to both food and water, except when removed from the home cage for experimental procedures.
In this model, the injection of formalin elicits a distinct biphasic behavioral profile characterized by the mouse licking the affected paw. Immediately after the injection, the mouse licks the paw for about 10 minutes. This corresponds to phase 1 (acute response) and is followed by a brief latency period where there is little behavioral activity. A more prolonged period of about 20-30 minutes of paw licking ensues which constitutes phase 2 (inflammatory).
Two hours after administration, formalin was injected sub-dermally (20 μL, 27 gauge needle) into the plantar surface of the right hind foot. The bevel of the needle was placed facing down toward the skin surface. […] The cumulative length of licking for each 2 minute period was recorded. […] Animals were euthanized following the conclusion of the experiment.
Area under the curve (AUC) determinations were made using the GraphPad Prism Version 3.03. Total AUC was calculated for both the dosed and control groups for both acute and inflammatory phases. The AUC of individual animals for each phase was also calculated and converted to a percentage of total AUC of control.

[5] = both 60 mg/kg and 120 mg/kg PO daily for 20 days from D0, paclitaxel 2 mg/kg IP D0, D2, D4, D6

NS(=O)(=O)NC[C@H]1COc2cc(Cl)ccc2O1 [Compound #8, (2S)-(−)-N-(6-Chloro-2,3-dihydro-benzo[1,4]dioxin-2-ylmethyl)-sulfamide]
effect on Taxol-induced mechanical allodynia [1]: appeared to potentiate the pain response compared to Taxol® alone; however, this difference was not statistically significant; also recorded: ineffective in preventing the allodynia
continuation of suppressive effect after the last injection ([2]; 60 mg/kg and 120 mg/kg PO daily): approximately 11 days
side-effects ([2]; 60 mg/kg and 120 mg/kg PO daily for 20 days): no apparent side-effects
development of mechano-allodynia (4 gVFH test) [2, 5]: suppressed the development of mechano-allodynia and mechano-hyperalgesia
development of mechano-hyperalgesia (15 gVFH test) [2, 5]: suppressed the development of mechano-allodynia and mechano-hyperalgesia
peak reversal of thermal hypersensitivity (compared with the 24-hr post-CFA baseline) [3]: 86.0%
ED50 [4]: 101 mg/kg

NCC1(CC(=O)O)CCCCC1 [gabapentin, reference compound]
peak reversal of thermal hypersensitivity (compared with the 24-hr post-CFA baseline) [3]: 68.6%
